Source: patent US8299070B2, “Indole compounds and pharmaceutical use thereof” (Japan Tobacco Inc., priority 2009, dated 2012)
pIC50: −log10 of the molar value.

Molecular target: T1, hITK enzyme (FLAG-tagged full-length hITK) (Homo sapiens, UniProt Q08881)
T1 construct: strongly expressing FLAG-tagged full-length hITK in Sf9 cells; FLAG; made in house; host or cells: Sf9 insect cells (ITK); Escherichia coli (GST-SLP76 substrate)
T1 sequence (Q08881 1-620): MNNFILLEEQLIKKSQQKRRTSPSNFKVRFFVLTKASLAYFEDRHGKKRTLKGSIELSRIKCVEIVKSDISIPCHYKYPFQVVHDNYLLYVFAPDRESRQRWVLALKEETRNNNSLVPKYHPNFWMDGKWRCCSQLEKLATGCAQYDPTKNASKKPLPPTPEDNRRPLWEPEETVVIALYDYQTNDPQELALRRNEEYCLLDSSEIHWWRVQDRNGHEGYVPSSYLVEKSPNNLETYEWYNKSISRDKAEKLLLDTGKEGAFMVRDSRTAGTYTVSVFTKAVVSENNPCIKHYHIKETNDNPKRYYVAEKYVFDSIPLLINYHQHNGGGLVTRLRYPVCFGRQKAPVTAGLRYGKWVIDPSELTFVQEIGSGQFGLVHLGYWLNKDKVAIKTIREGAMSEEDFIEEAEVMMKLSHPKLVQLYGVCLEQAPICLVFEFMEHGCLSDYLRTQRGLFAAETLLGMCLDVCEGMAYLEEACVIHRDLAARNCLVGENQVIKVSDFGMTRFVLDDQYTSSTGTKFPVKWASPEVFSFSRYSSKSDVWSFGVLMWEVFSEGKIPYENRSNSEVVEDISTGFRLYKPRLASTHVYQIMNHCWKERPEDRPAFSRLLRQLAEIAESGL
Test: ITK inhibitory activity (HTRF kinase assay, biotinylated GST-SLP76 substrate)
Assay type: biochemical
Conditions: IC50 calculated from the 2 test compound concentrations sandwiching 50% ITK inhibitory rate
How it was run: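 Sf9-expressed hITK (50 ng/mL enzyme solution) reacted 10 min at RT in MOPS pH 7.0, 10 mmol/L MgCl2, 1 mmol/L DTT with E. coli SLP76 aa95–175 substrate; substrate solution held 100 µmol/L ATP (6 µmol/L for selected compounds). HTRF 665/620 ratio, blank-corrected; IC50 interpolated between two concentrations bracketing 50% inhibition.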

Going from CN(C(=O)[C@@H]1CCC(=O)N1C)c1ccc2cc(-c3n[nH]c4c3CCC(C)(C)C4)[nH]c2c1 [Example 151] to CC(=O)N1CCC[C@H]1C(=O)N(C)c1ccc2cc(-c3n[nH]c4c3CCC(C)(C)C4)[nH]c2c1 [Example 165], the pIC50 falls from 8.52 to 8.30 (0.22 log units).

Compared with CC1COCC(=O)N1C(C)C(=O)N(C)c1ccc2cc(-c3n[nH]c4c3CCC(C)(C)C4)[nH]c2c1 (stereo not shown) [Example 152], C[C@@H]1COCC(=O)N1CC(=O)N(C)c1ccc2cc(-c3n[nH]c4c3CCC(C)(C)C4)[nH]c2c1 [Example 171] is 1.15 log units higher in pIC50: 7.85 for the first, 9.00 for the second. The second is the more potent here.

First: CC1COCC(=O)N1C(C)C(=O)N(C)c1ccc2cc(-c3n[nH]c4c3CCC(C)(C)C4)[nH]c2c1 (stereo not shown) [Example 153]
Second: C[C@H]1COCC(=O)N1CC(=O)N(C)c1ccc2cc(-c3n[nH]c4c3CCC(C)(C)C4)[nH]c2c1 [Example 172]
The pIC50 of the first is 0.40 log units lower: 8.30 for the first, 8.70 for the second.

Going from CN(C(=O)CN1CCOC1=O)c1ccc2cc(-c3n[nH]c4c3CCC(C)(C)C4)[nH]c2c1 [Example 154] to CC1OCCN(CC(=O)N(C)c2ccc3cc(-c4n[nH]c5c4CCC(C)(C)C5)[nH]c3c2)C1=O (stereo not shown) [Example 167], the pIC50 rises from 8.70 to 9.00 (0.30 log units). The second is the more potent here.

Going from CO[C@H]1CN(CC(=O)N(C)c2ccc3cc(-c4n[nH]c5c4CCC(C)(C)C5)[nH]c3c2)C[C@H]1OC [Example 155] to CN(C(=O)CN1CC(C)(C)CC1=O)c1ccc2cc(-c3n[nH]c4c3CCC(C)(C)C4)[nH]c2c1 [Example 163], the pIC50 rises from 8.05 to 9.00 (0.95 log units). The second is the more potent here.

First: CN(C(=O)Cn1ccccc1=O)c1ccc2cc(-c3n[nH]c4c3CCC(C)(C)C4)[nH]c2c1 [Example 156]
Second: CN(C(=O)Cn1cccn1)c1ccc2cc(-c3n[nH]c4c3CCC(C)(C)C4)[nH]c2c1 [Example 157]
The pIC50 of the first is higher: > 9.00 for the first, 9.00 for the second.

CN(C(=O)C(CO)OC1CCCC1)c1ccc2cc(-c3n[nH]c4c3CCC(C)(C)C4)[nH]c2c1 (stereo not shown) [Example 158] and CC(C)OC(CO)C(=O)N(C)c1ccc2cc(-c3n[nH]c4c3CCC(C)(C)C4)[nH]c2c1 (stereo not shown) [Example 159] are within 0.2 log units of each other in pIC50: 8.30 for the first, 8.15 for the second.

First: CN(C(=O)CN1C(=O)CC[C@H]1CO)c1ccc2cc(-c3n[nH]c4c3CCC(C)(C)C4)[nH]c2c1 [Example 160]
Second: CN(C(=O)CN1C(=O)CC[C@@H]1CO)c1ccc2cc(-c3n[nH]c4c3CCC(C)(C)C4)[nH]c2c1 [Example 177]
The pIC50 of the first is 0.30 log units higher: 9.00 for the first, 8.70 for the second. The first is the more potent here.

Compared with CN(C(=O)C(C)(C)N1CCOCC1)c1ccc2cc(-c3n[nH]c4c3CCC(C)(C)C4)[nH]c2c1 [Example 161], CC(C)C(C(=O)N(C)c1ccc2cc(-c3n[nH]c4c3CCC(C)(C)C4)[nH]c2c1)N1CCOCC1 (stereo not shown) [Example 173] is 0.23 log units higher in pIC50: 7.66 for the first, 7.89 for the second. The second is the more potent here.

Compared with CC1CCN(CC(=O)N(C)c2ccc3cc(-c4n[nH]c5c4CCC(C)(C)C5)[nH]c3c2)C1=O (stereo not shown) [Example 162], CN(C(=O)CN1CC[C@@H](O)CC1=O)c1ccc2cc(-c3n[nH]c4c3CCC(C)(C)C4)[nH]c2c1 [Example 170] is higher in pIC50: 9.00 for the first, > 9.00 for the second. The second is the more potent here.

CN(C(=O)CN1CC(O)CC1=O)c1ccc2cc(-c3n[nH]c4c3CCC(C)(C)C4)[nH]c2c1 (stereo not shown) [Example 164] and CN(C(=O)CN1CC(C)(C)CCC1=O)c1ccc2cc(-c3n[nH]c4c3CCC(C)(C)C4)[nH]c2c1 [Example 175] are within 0.2 log units of each other in pIC50: 8.52 for the first, 8.70 for the second.

Going from CC(=O)N1CCC[C@@H]1C(=O)N(C)c1ccc2cc(-c3n[nH]c4c3CCC(C)(C)C4)[nH]c2c1 [Example 166] to CN(C(=O)CN1CCCC(C)(C)C1=O)c1ccc2cc(-c3n[nH]c4c3CCC(C)(C)C4)[nH]c2c1 [Example 174], the pIC50 falls from 9.00 to 8.70 (0.30 log units).

CO[C@H](C)C(=O)N(C)c1ccc2cc(-c3n[nH]c4c3CCC(C)(C)C4)[nH]c2c1 [Example 168] and CO[C@@H](C)C(=O)N(C)c1ccc2cc(-c3n[nH]c4c3CCC(C)(C)C4)[nH]c2c1 [Example 169] are the same in pIC50: 8.52 for the first, 8.52 for the second.

Compared with COC1CCC(CC(=O)N(C)c2ccc3cc(-c4n[nH]c5c4CCC(C)(C)C5)[nH]c3c2)CC1 (stereo not shown) [Example 176], CN(CC(=O)N(C)c1ccc2cc(-c3n[nH]c4c3CCC(C)(C)C4)[nH]c2c1)C(=O)OCc1ccccc1 [Example 178] is 0.25 log units higher in pIC50: 8.15 for the first, 8.40 for the second. The second is the more potent here.
